Assay results as given in the NIST ThermoML archive (doi:10.1021/je0501843).

Test: wn = mass fraction of the nth substance listed
Conditions: Fluid (supercritical or subcritical phases), isochoric method, w1 = 0.5001

FC(F)C(F)(F)F [pentafluoroethane] + FCF
Conditions | mass density [kg/m3]
363 K, 13894 kPa | 858.1
364 K, 6970 kPa | 475.8
364 K, 7223 kPa | 525.7
364 K, 7494 kPa | 571.2
364 K, 7828 kPa | 614.6
364 K, 10192 kPa | 760.2
364 K, 14207 kPa | 858
365 K, 7077 kPa | 475.8
365 K, 7344 kPa | 525.7
365 K, 7632 kPa | 571.2
365 K, 7982 kPa | 614.6
365 K, 10427 kPa | 760.1
365 K, 14520 kPa | 857.9
366 K, 7184 kPa | 475.8
366 K, 7465 kPa | 525.6
366 K, 7771 kPa | 571.1
366 K, 8137 kPa | 614.5
366 K, 10664 kPa | 760
366 K, 14835 kPa | 857.8
367 K, 7291 kPa | 475.8
367 K, 7587 kPa | 525.6
367 K, 7907 kPa | 571.1
367 K, 8294 kPa | 614.5
367 K, 10900 kPa | 760
367 K, 15148 kPa | 857.7
368 K, 7397 kPa | 475.8
368 K, 7708 kPa | 525.6
368 K, 8044 kPa | 571.1
368 K, 8449 kPa | 614.5
368 K, 11133 kPa | 759.9
368 K, 15462 kPa | 857.7
369 K, 7504 kPa | 475.7
369 K, 7831 kPa | 525.6
369 K, 8183 kPa | 571
369 K, 8605 kPa | 614.4
369 K, 11369 kPa | 759.9
369 K, 15777 kPa | 857.6
370 K, 7612 kPa | 475.7
370 K, 7953 kPa | 525.5
370 K, 8323 kPa | 571
370 K, 8762 kPa | 614.4
370 K, 11608 kPa | 759.8
370 K, 16094 kPa | 857.5
371 K, 7719 kPa | 475.7
371 K, 8075 kPa | 525.5
371 K, 8460 kPa | 571
371 K, 8917 kPa | 614.3
371 K, 11844 kPa | 759.7
371 K, 16410 kPa | 857.4
372 K, 7825 kPa | 475.7
372 K, 8198 kPa | 525.5
372 K, 8601 kPa | 571
372 K, 9073 kPa | 614.3
372 K, 12081 kPa | 759.7
372 K, 16724 kPa | 857.4
373 K, 7931 kPa | 475.7
373 K, 8321 kPa | 525.5
373 K, 8740 kPa | 570.9
373 K, 9230 kPa | 614.3
373 K, 12318 kPa | 759.6
373 K, 17037 kPa | 857.3
374 K, 8039 kPa | 475.6
374 K, 8445 kPa | 525.4
374 K, 8878 kPa | 570.9
374 K, 9389 kPa | 614.2
374 K, 12556 kPa | 759.6
374 K, 17355 kPa | 857.2
375 K, 8147 kPa | 475.6
375 K, 8567 kPa | 525.4
375 K, 9016 kPa | 570.9
375 K, 9544 kPa | 614.2
375 K, 12795 kPa | 759.5
375 K, 17669 kPa | 857.1
376 K, 8254 kPa | 475.6
376 K, 8690 kPa | 525.4
376 K, 9155 kPa | 570.8
376 K, 9701 kPa | 614.2
376 K, 13033 kPa | 759.5
376 K, 17984 kPa | 857.1
377 K, 8362 kPa | 475.6
377 K, 8813 kPa | 525.4
377 K, 9295 kPa | 570.8
377 K, 9858 kPa | 614.1
377 K, 13272 kPa | 759.4
377 K, 18301 kPa | 857
378 K, 8469 kPa | 475.6
378 K, 8937 kPa | 525.3
378 K, 9437 kPa | 570.8
378 K, 10018 kPa | 614.1
378 K, 13511 kPa | 759.3
378 K, 18619 kPa | 856.9
379 K, 8575 kPa | 475.5
379 K, 9060 kPa | 525.3
379 K, 9576 kPa | 570.7
379 K, 10174 kPa | 614
379 K, 13747 kPa | 759.3
379 K, 18935 kPa | 856.8
380 K, 8683 kPa | 475.5
380 K, 9183 kPa | 525.3
380 K, 9715 kPa | 570.7
380 K, 10331 kPa | 614
380 K, 13988 kPa | 759.2
381 K, 8790 kPa | 475.5
381 K, 9306 kPa | 525.2
381 K, 9856 kPa | 570.7
381 K, 10492 kPa | 614
381 K, 14227 kPa | 759.2
382 K, 8897 kPa | 475.5
382 K, 9432 kPa | 525.2
382 K, 9996 kPa | 570.6
382 K, 10651 kPa | 613.9
382 K, 14466 kPa | 759.1
383 K, 9005 kPa | 475.4
383 K, 9553 kPa | 525.2
383 K, 10136 kPa | 570.6
383 K, 10808 kPa | 613.9
383 K, 14706 kPa | 759
384 K, 9112 kPa | 475.4
384 K, 9679 kPa | 525.2
384 K, 10277 kPa | 570.6
384 K, 10967 kPa | 613.8
384 K, 14944 kPa | 759
385 K, 9219 kPa | 475.4
385 K, 9804 kPa | 525.1
385 K, 10418 kPa | 570.5
385 K, 11125 kPa | 613.8
385 K, 15188 kPa | 758.9
386 K, 9326 kPa | 475.4
386 K, 9929 kPa | 525.1
386 K, 10558 kPa | 570.5
386 K, 11283 kPa | 613.8
386 K, 15426 kPa | 758.9
387 K, 9434 kPa | 475.3
387 K, 10051 kPa | 525.1
387 K, 10699 kPa | 570.5
387 K, 11442 kPa | 613.7
387 K, 15666 kPa | 758.8
388 K, 9540 kPa | 475.3
388 K, 10174 kPa | 525
388 K, 10840 kPa | 570.4
388 K, 11602 kPa | 613.7
388 K, 15904 kPa | 758.7
389 K, 9649 kPa | 475.3
389 K, 10296 kPa | 525
389 K, 10980 kPa | 570.4
389 K, 11761 kPa | 613.6
389 K, 16147 kPa | 758.7
390 K, 9756 kPa | 475.3
390 K, 10421 kPa | 525
390 K, 11124 kPa | 570.3
390 K, 11922 kPa | 613.6
390 K, 16388 kPa | 758.6
391 K, 9862 kPa | 475.2
391 K, 10547 kPa | 524.9
391 K, 11263 kPa | 570.3
391 K, 12081 kPa | 613.6
391 K, 16627 kPa | 758.6
392 K, 9969 kPa | 475.2
392 K, 10670 kPa | 524.9
392 K, 11403 kPa | 570.3
392 K, 12239 kPa | 613.5
392 K, 16868 kPa | 758.5
393 K, 10077 kPa | 475.2
393 K, 10795 kPa | 524.9
393 K, 11546 kPa | 570.2
393 K, 12400 kPa | 613.5
393 K, 17110 kPa | 758.4
394 K, 10185 kPa | 475.2
394 K, 10920 kPa | 524.9
394 K, 11688 kPa | 570.2
394 K, 12560 kPa | 613.4
394 K, 17351 kPa | 758.4
395 K, 10292 kPa | 475.1
395 K, 11045 kPa | 524.8
395 K, 11829 kPa | 570.2
395 K, 12720 kPa | 613.4
395 K, 17590 kPa | 758.3
396 K, 10400 kPa | 475.1
396 K, 11168 kPa | 524.8
396 K, 11972 kPa | 570.1
396 K, 12880 kPa | 613.4
396 K, 17831 kPa | 758.3
397 K, 10508 kPa | 475.1
397 K, 11292 kPa | 524.8
397 K, 12113 kPa | 570.1
397 K, 13040 kPa | 613.3
397 K, 18073 kPa | 758.2
398 K, 10616 kPa | 475
398 K, 11415 kPa | 524.7
398 K, 12256 kPa | 570.1
398 K, 13199 kPa | 613.3
398 K, 18315 kPa | 758.1
399 K, 10723 kPa | 475
399 K, 11538 kPa | 524.7
399 K, 12395 kPa | 570
399 K, 13361 kPa | 613.2
399 K, 18556 kPa | 758.1
